Measurements as given in US20260144808A1, “TREATMENT OF REPEAT EXPANSION DISEASE” (The Johns Hopkins University, priority 2022, published 2026).

How the values were obtained:
C9orf72 V2 transcripts = experiment: RT-qPCR analysis of C9V2 mRNA levels in human RPE1 cells after drug treatment; format: cell-based; details: 24 h; for levels of C9orf72 V2 transcripts: vs DMSO, FIG. 13J; for C9V2 mRNA, as measured by RT-qPCR: increasing concentrations of TM or TG, FIG. 13G
Method: (§1) Cell culture, drug treatment, lentiviral shRNA knockdown, and live-cell imaging—HEK293 cells and mouse embryonic fibroblast (MEF) cells were cultured in DMEM containing 10% FBS. Human retinal pigment epithelial 1 (RPE1) cells were cultured in DMEM/F12 containing 10% FBS and 0.01 mg/ml hygromycin B. Human B lymphocytes were cultured in RPMI 1640 medium containing 15% FBS. Human iPSCs were obtained from the NINDS Human Cell and Data Repository and maintained in StemFlex medium (Gibco, A3349401), with medium exchange every other day. All cell lines were checked regularly for mycoplasma contamination. To induce cell stress, RPE1 cells were treated with thapsigargin (30 nM) or tunicamycin (5 μg/ml) for 24 h, and B lymphocytes were treated with thapsigargin (40 nM) or tunicamycin (1 μg/ml) for 24 h. To express PR82, RPE1 cells were transfected with the pLenti-PR82 plasmid and cultured for 48 h.
(§2) Quantitative PCR— Total RNAs were extracted with an RNeasy Plus mini kit (Qiagen, 74136), and cDNAs were synthesized using QuantiTect reverse transcription reagents (Qiagen, 205313). qPCR reactions were carried out on a Bio-Rad thermal cycler using PowerUp SYBR Green Master Mix (ThermoFisher Scientific). The primer sets for C9orf72 transcripts V1, V2, and V3 were described previously (Gendron et al., 2017, incorporated herein by reference). The expression of C9orf72 pre-mRNA was measured with a pair of primers targeted to the junction region between exon 2 and intron 3 (SEQ ID NO: 11 and 12). The mRNA expression levels were analyzed by the ΔΔCt method and normalized against housekeeping genes. In the promoter analysis, the EGFP transcription level was normalized to the GAPDH transcript and the plasmid-encoded ampicillin resistance (AmpR) transcript to exclude any bias induced by differential transfection efficiency.

C9HRE iMNs = experiment: Neuronal survival of C9HRE iMNs under tunicamycin stress, calcein-AM staining; format: cell-based, human
Method: (§3) Motor neuron differentiation of human iPS cells and experimental analyses—The differentiation of iPSCs into motor neurons was performed as previously described (Liu et al., 2018). In brief, iPSCs were seeded onto Matrigel-coated plates and differentiated into neuroepithelial progenitor cells (NEPCs) by culturing 6 days in neural medium (1:1 DMEM/F12:neurobasal medium. GlutaMax, N2 supplement, B27 supplement, and ascorbic acid) containing 3 μM […], 2 μM SB431542, and 2 μM DMH-1. NEPCs were dissociated with dispase (1 U/ml) and split into new plates coated with Matrigel at a ratio of about 1:6. NEPCs were differentiated into motor neuron progenitor cells (MNPCs) using neural medium supplemented with 1 μM CHIR99021, 2 μM SB431542, 2 μM DMH-1, 0.1 μM retinoic acid (RA), and 0.5 μM purmorphamine. After culturing for 6 days, MNPCS were dissociated and cultured in suspension using neural medium containing 0.5 μM RA and 0.1 μM purmorphamine. Six days later, neural spheres were dissociated and plated onto a Matrigel-coated plate. Adherent neural spheres were cultured in neural medium supplemented with 0.5 μM RA, 0.1 μM purmorphamine, and 0.1 μM compound E. After 12 days, mature motor neurons were provided for experiments. The medium was changed every other day during the entire differentiation period.
For knockdown experiments on motor neurons, iMNs were infected twice with the shRNA-expressing lentiviruses, on day 10 and day 12 at the final differentiation stage, and the cells were used on day 15 to allow for efficient DAXX knockdown. Mature iMNs were stressed with tunicamycin (5 μg/ml) in the presence of Na-Phen (10 μM) or 5-aza-2 ([…]) for the indicated times, and neuronal survival at each time point was measured by calcein-AM staining. In brief, iMNs were stained with 3 μM calcein-AM (Invitrogen, C1430), and the fluorescence of surviving iMNs was read using a plate reader (Synergy H1 Hybrid) with excitation/emission at 485 nm/535 nm. Optical fields with calcein-positive iMNs were randomly selected and images captured using a fluorescence microscope (Nikon Eclipse TS100).

[1] = test system: mutant SOD1 mouse model of ALS; details: Ryu et al., 2005; cited from earlier work
C9orf72 protein and mRNA = experiment: Stress-induced C9orf72 expression in control and C9HRE B lymphocytes (immunoblotting, RT-qPCR); format: cell-based, human; details: tunicamycin 1 μg/ml or thapsigargin 40 nM, 24 h; for dynamic regulation of C9orf72 expression: B lymphocytes from C9HRE patients; for stress-responsive induction of C9orf72 expression at both the protein and mRNA levels: normal B lymphocytes
Method: as §1, §2
Immunoblotting—Cultured cells were washed twice with PBS and lysed in cold RIPA buffer containing 50 mM Tris (pH 7.5), 0.5% SDS, 150 mM NaCl, 0.5% NP40, 20 mM EDTA, 1 mM PMSF, and Protease Inhibitor Cocktail (1:200, Millipore Sigma, P8340).
(§4) Protein concentrations were measured by the bicinchoninic acid assay (ThermoFisher, 23225). […] Western blot images were captured by an Odyssey scanner (LI-COR) and analyzed with Image Studio (version 5.2.5). […]

C9orf72 V2 promoter = experiment: ChIP-qPCR of H3K9me3 and H3K27ac at the C9orf72 V2 promoter in human RPE1 cells; format: cell-based; details: 24 h, vs DMSO, FIG. 13I
Method: as §1
Chromatin immunoprecipitation qPCR—ChIP-qPCR analysis of RPE1 cells, B lymphocytes, and iPSC-differentiated motor neurons was performed by using a CHIP assay kit (Millipore Sigma, 17-295). In brief, protein complexes were crosslinked with 1% formaldehyde at 37° C. for 10 min and quenched with glycine at a final concentration of 125 mM at 37° C. for 5 min. […]

C9V2 mRNA = experiment: RT-qPCR analysis of C9V2 mRNA in HEK293 cells after stressor treatment; format: cell-based, human; details: increasing concentrations of TM or TG, 24 h, FIG. 13F
Method: as §1, with “To express PR82, RPE1 cells were transfected with the pLenti-PR82 plasmid and cultured for 48 h.” left out
(§5) Quantitative PCR— Total RNAs were extracted with an RNeasy Plus mini kit (Qiagen, 74136), and cDNAs were synthesized using QuantiTect reverse transcription reagents (Qiagen, 205313). qPCR reactions were carried out on a Bio-Rad thermal cycler using PowerUp SYBR Green Master Mix (ThermoFisher Scientific). […] The expression of C9orf72 pre-mRNA was measured with a pair of primers targeted to the junction region between exon 2 and intron 3 (SEQ ID NO: 11 and 12). The mRNA expression levels were analyzed by the ΔΔCt method and normalized against housekeeping genes. […]

[2] = test system: C9orf72 protein and V2 mRNA; experiment: Stress-induced C9orf72 expression in control and C9HRE iMNs (immunoblotting, RT-qPCR); format: cell-based, human; details: tunicamycin 5 μg/ml, 24 h
Method: as §3, §5, §4

DAXX = DAXX (Homo sapiens, UniProt Q9UER7 Q9UER7:1-740); experiment: EMSA; significantly preferential over random control; 50 nM probe, 10 mM Tris pH 7.5, 1 mM EDTA, 0.1 mM DTT, BSA, 5% glycerol, RT 30 min; details: tags: Flag-DAXX (Flag-Daxx/pRK5, Addgene 27974), anti-Flag M2 purified from HEK293 per Methods; label: 5' Alexa Fluor 488 on one strand
Method: Several assays were used to validate the interaction between DAXX and the G4C2 repeat dsDNA. […] Next, experiments were conducted to test whether DAXX protein and G4C2 repeat dsDNA interact directly. In these experiments, human DAXX protein (FIG. 8D) was purified and an electrophoresis mobility shift assay (EMSA) was performed using 5′ AlexaFluor 488-labeled (G4C2)₁₀ dsDNA or a length-matched random sequence control. […] In addition, experiments were performed to establish the association of endogenous DAXX with the expanded C9orf72 (G4C2)n DNA repeats in situ. In these experiments, DNA fluorescent in situ hybridization (FISH) was used to immunostain DAXX on multiple lines of ALS and/or FTD patient lymphocytes carrying C9orf72 HRE mutations. A co-localization between the DAXX immunostaining and FISH staining at the C9HRE locus was indicated by a well-demarcated punctum present only in the nuclei of patient cells and not in the control cells (FIG. 1A).

DAXX, sequence (Q9UER7 whole entry, one chain of several): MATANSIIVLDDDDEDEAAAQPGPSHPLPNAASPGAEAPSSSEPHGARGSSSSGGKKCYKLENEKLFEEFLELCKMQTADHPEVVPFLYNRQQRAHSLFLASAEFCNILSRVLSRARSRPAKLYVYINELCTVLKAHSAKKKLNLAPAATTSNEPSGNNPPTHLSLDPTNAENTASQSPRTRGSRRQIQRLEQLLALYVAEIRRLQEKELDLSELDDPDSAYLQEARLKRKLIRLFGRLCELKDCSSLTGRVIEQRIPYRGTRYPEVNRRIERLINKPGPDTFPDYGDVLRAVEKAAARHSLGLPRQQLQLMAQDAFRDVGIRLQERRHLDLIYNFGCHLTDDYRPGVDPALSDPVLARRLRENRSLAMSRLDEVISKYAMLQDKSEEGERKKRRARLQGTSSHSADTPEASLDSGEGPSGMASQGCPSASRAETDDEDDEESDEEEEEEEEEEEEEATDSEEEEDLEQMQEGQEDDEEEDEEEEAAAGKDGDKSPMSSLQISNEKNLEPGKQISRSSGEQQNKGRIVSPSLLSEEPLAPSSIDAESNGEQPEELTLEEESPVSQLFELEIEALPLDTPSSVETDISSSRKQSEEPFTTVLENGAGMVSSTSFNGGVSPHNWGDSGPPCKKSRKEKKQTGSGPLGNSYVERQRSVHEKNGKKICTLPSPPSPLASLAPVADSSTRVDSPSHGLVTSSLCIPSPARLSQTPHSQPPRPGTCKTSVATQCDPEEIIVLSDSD

O=C([O-])CCCc1ccccc1.[Na+] [Na-Phen, sodium phenylbutyrate]
levels of C9orf72 V2 transcripts (C9orf72 V2 transcripts; Na-Phen 10 μM): significantly upregulated
protection of C9HRE iMNs from tunicamycin-induced stress (C9HRE iMNs; TM 5 μg/ml with Na-Phen 10 μM, vs DMSO, FIG. 7C, D): robust protection
survival in a mutant SOD1 mouse model of ALS [1]: prolongs the survival

Nc1ncn([C@H]2C[C@H](O)[C@@H](CO)O2)c(=O)n1 [Compound 5-aza-2, 5-aza-2′-deoxycytidine]
levels of C9orf72 V2 transcripts (C9orf72 V2 transcripts; 5-aza-2 2 μM): significantly upregulated
survival of C9HRE iMNs exposed to tunicamycin (C9HRE iMNs; TM 5 μg/ml with 5-aza-2 2 μM, vs DMSO, FIG. 7C, D): significant increase

C/C=C(/C)C(=O)O[C@H]1C(C)=C2[C@H]([C@@H]1OC(=O)CCCCCCC)[C@@](C)(OC(C)=O)C[C@H](OC(=O)CCC)[C@@]1(O)[C@H]2OC(=O)[C@@]1(C)O [thapsigargin]
C9V2 mRNA, as measured by RT-qPCR (C9orf72 V2 transcripts): stress-dependent induction
dynamic regulation of C9orf72 expression (C9orf72 protein and mRNA): lost
stress-responsive induction of C9orf72 expression at both the protein and mRNA levels (C9orf72 protein and mRNA): observed
levels of the repressive marker H3K9me3 at the C9orf72 V2 promoter (C9orf72 V2 promoter; TG 30 nM): decreased
C9V2 mRNA, as measured by RT-qPCR (C9V2 mRNA): stress-dependent induction

tunicamycin
C9V2 mRNA, as measured by RT-qPCR (C9orf72 V2 transcripts): stress-dependent induction
loss of C9HRE iMNs (C9HRE iMNs; tunicamycin 5 μg/ml alone, FIG. 7A, B): time-dependent loss
tunicamycin-induced upregulation of C9orf72 expression ([2]; iMNs derived from C9HRE patients, FIG. 5A-C): absent
C9orf72 protein levels ([2]; iMNs from healthy individuals, vs DMSO, FIG. 5A-B): significantly increased
C9orf72 V2 mRNA levels ([2]; iMNs from healthy individuals, vs DMSO, FIG. 5C): significantly increased
dynamic regulation of C9orf72 expression (C9orf72 protein and mRNA): lost
stress-responsive induction of C9orf72 expression at both the protein and mRNA levels (C9orf72 protein and mRNA): observed
levels of the active marker H3K27ac at the C9orf72 V2 promoter (C9orf72 V2 promoter; TM 5 μg/ml): elevated
C9V2 mRNA, as measured by RT-qPCR (C9V2 mRNA): stress-dependent induction

B1: (G4C2)10 dsDNA (dsDNA)
DNA 1: GGGGCCGGGGCCGGGGCCGGGGCCGGGGCCGGGGCCGGGGCCGGGGCCGGGGCCGGGGCC
DNA 2: GGCCCCGGCCCCGGCCCCGGCCCCGGCCCCGGCCCCGGCCCCGGCCCCGGCCCCGGCCCC
binding result (DAXX): binds
